Structures are written as SMILES. A value given as a limit tells only on which side of the number the result lay.

For the assay, the target named is CDK2/Cyclin E1 (Homo sapiens, UniProt P24941). Put plainly: CDK2/Cyclin E1 Caliper LabChip EZ Reader mobility shift assay. The assay is classed as biochemical. Also on record: purchased Eurofins 14-475. Conditions: read-out: Caliper Assay (CDK2/CCNE1): IC50. Here is the method:
Inhibition of CDK2/Cyclin E1 activity in the presence of compounds of the present disclosure was evaluated using a Caliper LabChip® EZ Reader mobility shift assay. In the assay, CDK2/Cyclin E1 (Eurofins, 14-475) catalyzed the phosphorylation of a fluorescently tagged peptide 5-FAM-QSPKKG-CONH2 (PerkinElmer, FL Peptide 18) which induced a difference in capillary electrophoresis mobility. The peptide substrate and product were measured, and the conversion ratio was used to determine the inhibition (as % activity and IC50 values) of CDK2/Cyclin E1. Reactions contained 50 mM HEPES pH 7.5, 10 mM MgCl2, 1 mM EDTA, 2 mM DTT, 0.01% Brij35, 0.5 mg/mL BSA, 0.1% DMSO, 2.5 nM CDK2/Cyclin E1, 100 μM ATP, and 1.5 μM fluorescent peptide substrate.
Dose titrations of inhibitors in 100% DMSO were combined with 3.25 nM CDK2/Cyclin E1 and 130 μM of ATP in reaction buffer. The mixtures were incubated for 30 minutes before the addition of fluorescent peptide substrate to initiate the kinase reaction. The final conditions were 2.5 nM CDK2/Cyclin E1, 100 μM ATP, and 1.5 μM fluorescent peptide. The reactions were stopped after 100 minutes with the addition of EDTA (400 mM final EDTA concentration). The stopped reactions were analyzed on a Caliper LabChip® EZ Reader II. The conversion ratios were normalized to yield % activity, plotted against compound concentration, and fit to a four-parameter equation to determine the IC50 for each compound.
For the compound `CNC(=O)[C@@H](NC(=O)[C@@H]1CN(C(=O)c2cnn(Cc3ccccc3)c2)CC12CN(C(=O)C(C)(C)F)C2)[C@@H](C)OCc1ccccc1` [I-90A], the IC50 fell in the range of 0.1 to 1 µM.

For `CNC(=O)[C@@H](NC(=O)[C@H]1CN(C(=O)c2cnn(Cc3ccccc3)c2)CC12CN(C(=O)[C@H]1CC1(C)C)C2)[C@@H](C)OCC1(C(F)(F)F)CC1` [I-205B], the IC50 is 1 to 10 µM.

`CC1(C)C[C@@H]1C(=O)N1CC2(CN(C(=O)c3cnn(Cc4ccccc4)c3)C[C@H]2C(=O)Nc2ccc(Cc3ccccc3)nc2)C1` [I-139, (S)-6-(1-benzyl-1H-pyrazole-4-carbonyl)-N-(6-benzylpyridin-3-yl)-2-((S)-2,2-dimethylcyclopropane-1-carbonyl)-2,6-diazaspiro[3.4]octane-8-carboxamide]: the IC50 was in the range of 0.1 to 1 µM.

Turning to `CNC(=O)[C@@H](NC(=O)[C@H]1CN(C(=O)c2sc(Cl)nc2Cl)CC12CN(C(=O)[C@H]1CC1(C)C)C2)[C@@H](C)OCC1CCCCC1` [I-232B], the IC50 is 1 to 10 µM.

With `CNC(=O)[C@@H](NC(=O)[C@H]1CN(Cc2cnco2)CC12CN(C(=O)[C@H]1CC1(C)C)C2)[C@@H](C)OCc1ccccc1` [I-78B], the IC50 was over 10 µM.

Turning to `C[C@@H](OCc1ccccc1)[C@H](NC(=O)C1CN(C(=O)c2cnn(Cc3ccccc3)c2)CC12CN(C(=O)[C@H]1CC1(C)C)C2)C(=O)N1CCCCC1` (stereo partly drawn) [I-97, 6-(1-benzyl-1H-pyrazole-4-carbonyl)-N-((2S,3R)-3-(benzyloxy)-1-oxo-1-(piperidin-1-yl)butan-2-yl)-2-((S)-2,2-dimethylcyclopropanecarbonyl)-2,6-diazaspiro[3.4]octane-8-carboxamide], the IC50 fell in the range of 0.01 to 0.1 µM.

With `C[C@@H](OCc1ccccc1)[C@H](NC(=O)C1CN(C(=O)c2cnn(Cc3ccccc3)c2)CC12CN(C(=O)[C@H]1CC1(C)C)C2)C(=O)NCC#CCO` (stereo partly shown) [I-20], the IC50 lay in the range of 0.01 to 0.1 µM.

Regarding `CC1(C)C[C@@H]1C(=O)N1CC2(CN(C(=O)c3cnn(Cc4ccccc4)c3)C[C@@H]2C(=O)Nc2ccc(Cc3ccccc3)cc2)C1` [I-84B], the IC50 was in the range of 1 to 10 µM.

As to `CNC(=O)C(NC(=O)[C@@H]1CN(C(=O)c2cnn(Cc3ccccc3)c2)CC12CN(C(=O)[C@H]1CC1(C)C)C2)c1cccc(C2CCCCC2)n1` (stereo partly shown) [I-391], the IC50 is at most 0.01 µM.

Consider `CNC(=O)[C@@H](NC(=O)[C@@H]1CN(C(=O)c2cnn(Cc3ccccc3)c2)CC12CN(C(=O)[C@H]1CC1(C)C)C2)[C@@H](C)OC[C@H]1CC[C@@H](O)CC1` [I-424], for which the IC50 is 0.01 to 0.1 µM.

Turning to `CNC(=O)[C@@H](NC(=O)[C@@H]1CN(C(=O)c2cnn(Cc3ccccc3)c2)CC12CN(C(=O)C1C(C)(C)C1(C)C)C2)[C@@H](C)OCc1ccccc1` [I-89A], the IC50 was in the range of 1 to 10 µM.

Consider `CNC(=O)[C@@H](NC(=O)[C@@H]1CN(C(=O)c2cncs2)CC12CN(CC1CCOC1)C2)[C@@H](C)OCC12CCC(CC1)OC2` (stereo partly shown) [I-345], for which the IC50 is over 10 µM.

For the compound `CNC(=O)[C@@H](NC(=O)[C@H]1CN(C(=O)c2cnn(Cc3ccccc3)c2)CC12CN(C(=O)C1CC1(C)C)C2)[C@@H](C)O` (stereo partly shown) [I-88B], the IC50 was over 10 µM.

Take `CC1(C)C[C@@H]1C(=O)N1CC2(CN(C(=O)c3cnn(Cc4ccccc4)c3)C[C@H]2C(=O)N2CCC[C@@H](OCC3CCCCC3)C2)C1` [I-254]: the IC50 was over 10 µM.

With `CNC(=O)[C@@H](NC(=O)[C@@H]1CN(C(=O)c2nncs2)CC12CN(C(=O)[C@H]1CC1(C)C)C2)[C@@H](C)OCC1CCCCC1` [I-246], the IC50 fell in the range of 0.1 to 1 µM.

Consider `C[C@@H](OCC1CCCCC1)[C@@H](COCC1CCCCC1)NC(=O)[C@@H]1CN(C(=O)c2cncs2)CC12CN(C(=O)[C@H]1CC1(C)C)C2` [I-282], for which the IC50 was at most 0.01 µM.

Take `CNC(=O)[C@@H](NC(=O)[C@H]1CN(C(=O)c2cnn(Cc3ccccc3)c2)CC12CN(C(=O)CC(C)(C)C)C2)[C@@H](C)OCc1ccccc1` [I-62B]: the IC50 was over 10 µM.

On to `CNC(=O)[C@@H](NC(=O)[C@@H]1CN(C(=O)c2cnn(Cc3ccccc3)c2)CC12CN(C(=O)[C@H]1CC1(C)C)C2)[C@@H](C)OCC1CCC1` [I-144A], for which the IC50 lay in the range of 0.01 to 0.1 µM.

In the case of `CNC(=O)[C@@H](NC(=O)[C@@H]1CN(C(=O)c2cnc(COC)s2)CC12CN(C(=O)[C@H]1CC1(C)C)C2)[C@@H](C)OCC1CCCCC1` [I-145A], the IC50 was 0.01 to 0.1 µM.

For the compound `CNC(=O)[C@@H](NC(=O)[C@@H]1CN(C(=O)c2scnc2C(F)(F)F)CC12CN(C(=O)[C@H]1CC1(C)C)C2)[C@@H](C)OCC1CCCCC1` [I-163A], the IC50 was over 10 µM.

Consider `CNC(=O)[C@@H](NC(=O)[C@@H]1CN(C(=O)c2cnn(Cc3ccccc3)c2)CC12CN(C(=O)CC(C)(C)C)C2)[C@@H](C)OCc1ccccc1` [I-62A], for which the IC50 fell in the range of 0.1 to 1 µM.

Consider `CC1(C)C[C@@H]1C(=O)N1CC2(CN(C(=O)c3cnn(Cc4ccccc4)c3)C[C@H]2C(=O)N2CCC(Cc3ccccc3)CC2)C1` [I-58A], for which the IC50 lay in the range of 0.1 to 1 µM.

Turning to `CNC(=O)[C@@H](NC(=O)[C@@H]1CN(C(=O)c2cncs2)CC12CN(CC1COC1)C2)[C@@H](C)OCC12CCC(CC1)OC2` [I-348], the IC50 fell in the range of 1 to 10 µM.

Turning to `CNC(=O)[C@@H](NC(=O)[C@H]1CN(Cc2cccnc2)CC12CN(C(=O)[C@H]1CC1(C)C)C2)[C@@H](C)OCc1ccccc1` [I-49B], the IC50 was over 10 µM.

For the compound `CNC(=O)[C@@H](NC(=O)[C@@H]1CN(C(=O)c2cnn(Cc3ccccc3)c2)CC12CN(C(=O)C1(F)CC1)C2)[C@@H](C)OCc1ccccc1` [I-71A], the IC50 is 0.1 to 1 µM.

`CNC(=O)[C@@H](NC(=O)[C@@H]1CN(C(=O)c2cncs2)CC12CN(C(=O)[C@H]1CC1(C)C)C2)[C@@H](C)OCC1CCCC2(CC2)C1` (stereo partly shown) [I-370]: the IC50 is at most 0.01 µM.

For `C[C@@H](OCC1CCCCC1)[C@H](NC(=O)[C@H]1CN(C(=O)c2cn[nH]c2)CC12CN(C(=O)[C@H]1CC1(C)C)C2)C(=O)N1CCCCC1` [I-151B], the IC50 lay within 1 to 10 µM.

As to `CC1(C)C[C@@H]1C(=O)N1CC2(CN(C(=O)c3cncs3)C[C@H]2C(=O)NC(c2cccc(C3CCOCC3)n2)C2CCCO2)C1` (stereo partly shown) [I-497], the IC50 is 1 to 10 µM.

As to `C[C@@H](OCc1ccccc1)[C@H](NC(=O)C1CN(C(=O)c2cnn(Cc3ccccc3)c2)CC12CN(C(=O)[C@H]1CC1(C)C)C2)C(=O)NCCO` (stereo partly shown) [I-30], the IC50 lay within 0.01 to 0.1 µM.

Turning to `CNC(=O)[C@@H](NC(=O)[C@@H]1CN(C(=O)Cc2cnn(Cc3ccccc3)c2)CC12CN(C(=O)[C@H]1CC1(C)C)C2)[C@@H](C)OCc1ccccc1` [I-373], the IC50 is over 10 µM.

As to `C[C@@H](OCC1CCCCC1)[C@H](NC(=O)[C@@H]1CN(C(=O)c2cnn(Cc3ccccc3)c2)CC12CN(C(=O)[C@H]1CC1(C)C)C2)C(=O)O` [I-477], the IC50 is at most 0.01 µM.

As to `C[C@@H](OCC1CCC(F)(F)CC1)[C@H](NC(=O)[C@H]1CN(C(=O)c2cn[nH]c2)CC12CN(C(=O)C1(C(F)(F)F)CC1)C2)C(=O)N1CCC(F)(F)CC1` [I-188B], the IC50 was 1 to 10 µM.

As for `CC1(C)C[C@@H]1C(=O)N1CC2(CN(C(=O)c3cnn(Cc4ccccc4)c3)C[C@@H]2C(=O)N[C@H]2CCCN(C(=O)c3ccccc3)C2)C1` [I-83B], the IC50 is over 10 µM.

For `CNC(=O)[C@@H](NC(=O)[C@@H]1CN(C(=O)c2cncs2)CC12CN(CC(C)(C)C)C2)[C@@H](C)OCC12CCC(CC1)OC2` [I-347], the IC50 was over 10 µM.

On to `CNC(=O)[C@@H](NC(=O)[C@H]1CN(C(=O)c2sc(C)nc2C)CC12CN(C(=O)[C@H]1CC1(C)C)C2)[C@@H](C)OCC1CCCCC1` [I-213B], for which the IC50 was over 10 µM.

Regarding `CC1(C)C[C@@H]1C(=O)N1CC2(CN(C(=O)c3cnn(Cc4ccccc4)c3)C[C@H]2C(=O)N[C@@H]2CC[C@@H]2O)C1` [I-201B], the IC50 is over 10 µM.

Take `COC(=O)C1(NC(=O)[C@H]2CN(C(=O)c3cnn(Cc4ccccc4)c3)CC23CN(C(=O)[C@H]2CC2(C)C)C3)COC1` [I-142A]: the IC50 was over 10 µM.

In the case of `CNC(=O)C(NC(=O)[C@@H]1CN(C(=O)c2cncs2)CC12CN(C(=O)[C@H]1CC1(C)C)C2)c1ncc(C2CCCCC2)o1` (stereo partly shown) [I-426], the IC50 was 0.1 to 1 µM.

Regarding `Cc1nc(C)c(C(=O)N2C[C@@H](C(=O)N[C@H](C(=O)N3CCC(OC(F)(F)F)CC3)[C@@H](C)OCC34CCC(CC3)OC4)C3(C2)CN(C(=O)[C@H]2CC2(C)C)C3)s1` [I-455], the IC50 fell in the range of 0.01 to 0.1 µM.

As to `CNC(=O)[C@@H](NC(=O)[C@@H]1CN(C(=O)c2cnn(Cc3ccc(C(=O)O)cc3)c2)CC12CN(C(=O)[C@H]1CC1(C)C)C2)[C@@H](C)OCc1ccccc1` [I-476], the IC50 fell in the range of 1 to 10 µM.

For `C[C@@H](OCC1CCC(F)(F)CC1)[C@H](NC(=O)[C@H]1CN(C(=O)c2cnn(Cc3ccc(F)cc3)c2)CC12CN(C(=O)[C@H]1CC1(C)C)C2)C(=O)N1CCC(F)(F)CC1` [I-164B], the IC50 lay in the range of 0.01 to 0.1 µM.

Take `CNC(=O)[C@@H](NC(=O)[C@@H]1CN(C(=O)c2cncs2)CC12CN(C(=O)[C@H]1CC1(C)C)C2)[C@@H](C)OCC1CC2CCC1O2` (stereo partly shown) [I-462]: the IC50 was 0.1 to 1 µM.

As for `C[C@@H](OCC1CC(F)(F)C1)[C@@H](CO)NC(=O)[C@@H]1CN(C(=O)c2cncs2)CC12CN(C(=O)[C@H]1CC1(C)C)C2` [I-412], the IC50 fell in the range of 0.01 to 0.1 µM.

The values above are taken from patent publication US20240174680A1, “CDK2 INHIBITORS AND METHODS OF USING THE SAME” (Cedilla Therapeutics, Inc., priority 2021, published 2024).
